Assay results published in patent US20250243210A1, “CRBN E3 LIGASE LIGAND COMPOUND, PROTEIN DEGRADER DEVELOPED BASED THEREON AND THEIR APPLICATIONS” (GLUETACS THERAPEUTICS (SHANGHAI) CO., LTD., priority 2021, published 2025).
pIC50: −log10 of the molar value.

Key:
[1] = test system: SU-DHL-6; assay: CCK-8 tumor cell proliferation, SU-DHL-6; assay type: cell-based; settings: Homo sapiens, SU-DHL-6, 72 h, read-out: IC50 for inhibiting the proliferation of tumor cells, SU-DHL-6
Protocol: (§1) Determination of half inhibitory concentration (IC50) of the compounds against tumor cells:
(§2) The tumor cells used herein were cultured in a cell culture medium listed in table 6 at 37° C. in an incubator with 5% CO2.
(§3) After the cells were treated with the compounds of the present disclosure for a period of time (the treatment times listed in Table 7), the cell viability detection reagent was added to the culture medium for cell viability assessment according to the instructions provided with the CCK-8 kit. […] The growth inhibition of the compounds of the present disclosure on cells was plotted by Prism Graphpad software, and the IC50 values of the compounds of the present disclosure were calculated therefrom.

[2] = test system: Kasumi-1; assay: CCK-8 tumor cell proliferation, Kasumi-1; assay type: cell-based; settings: Homo sapiens, Kasumi-1, 72 h, read-out: IC50 for inhibiting the proliferation of tumor cells, Kasumi-1
Protocol: as §1, §2, §3

[3] = test system: TMD8; assay: CCK-8 tumor cell proliferation, TMD8; assay type: cell-based; settings: Homo sapiens, TMD8, 72 h, read-out: IC50 for inhibiting the proliferation of tumor cells, TMD8
Protocol: as §1, §2, §3

[4] = test system: Daudi; assay: CCK-8 tumor cell proliferation, Daudi; assay type: cell-based; settings: Homo sapiens, 96 h, read-out: IC50 for inhibiting the proliferation of tumor cells, Daudi
Protocol: as §1, §2, §3

[5] = test system: LNcap; assay: CCK-8 tumor cell proliferation, LNcap; assay type: cell-based, Human; settings: 96 h, read-out: IC50 for inhibiting the proliferation of tumor cells, LNcap
Outline: (§4)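 Cells were seeded in 96-well plates and treated 24 h later with compounds at 10 concentrations, top 10 μM, 5-fold serial dilutions. Viability after the set treatment time was read with a CCK-8 kit, and IC50 was calculated from growth-inhibition curves.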

[6] = test system: CCRF-CEM; assay: CCK-8 tumor cell proliferation, CCRF-CEM; assay type: cell-based, Human; settings: 96 h, read-out: IC50 for inhibiting the proliferation of tumor cells, CCRF-CEM
Protocol: as §1, §2, §3

[7] = test system: Hep3B2.1-7; assay: CCK-8 tumor cell proliferation, Hep3B2.1-7; assay type: cell-based, Human; settings: Hep3B2.1-7, 96 h, read-out: IC50 for inhibiting the proliferation of tumor cells, Hep3B2.1-7
Outline: as §4

[8] = test system: DU-145; assay: CCK-8 tumor cell proliferation, DU-145; assay type: cell-based, Human; settings: DU-145, 96 h, read-out: IC50 for inhibiting the proliferation of tumor cells, DU-145
Outline: (§5)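 Cells grown at 37° C with 5% CO2, treated with compound for line-specific times, then viability read with CCK-8. IC50 derived from plotted growth inhibition curves.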

[9] = test system: MGC80-3; assay: CCK-8 tumor cell proliferation, MGC80-3; assay type: cell-based, Human; settings: MGC80-3, 96 h, read-out: IC50 for inhibiting the proliferation of tumor cells, MGC80-3
Outline: as §4

[10] = test system: MM.1R; assay: CCK-8 tumor cell proliferation, MM.1R; assay type: cell-based; settings: 72 h, read-out: IC50 for inhibiting the proliferation of tumor cells, MM.1R
Protocol: as §1, §2, §3

[11] = test system: WSU-DLCL2; assay: CCK-8 tumor cell proliferation, WSU-DLCL2; assay type: cell-based, Human; settings: WSU-DLCL2, 96 h, read-out: IC50 for inhibiting the proliferation of tumor cells, WSU-DLCL2
Outline: as §5

[12] = test system: A549; assay: CCK-8 tumor cell proliferation, A549; assay type: cell-based, Human; settings: A549, 96 h, read-out: IC50 for inhibiting the proliferation of tumor cells, A549
Protocol: as §1
The tumor cells used herein were cultured in a cell culture medium listed in table 6 at 37° C. in an incubator with 5% CO2. Prior to experimentation, all cells used were correctly identified by STR profiling, and tested negative for mycoplasma through routine screenings.
IC50 values of the compounds of the present disclosure (including the compounds in Table 4 and compounds of examples 1-72) were measured using the Meilun Cell Counting Kit-S kit from Dalian Meilun Biotech Co., Ltd. Assay details are as follows: tumor cells were seeded in a 96-well plate at a density listed in Table 7. After 24 h, 100 μL of the inoculated cells were treated with 0.5 μL of the compounds of the present disclosure (including the compounds in Table 4 and compounds of examples 1-72) at 10 different successively decreasing concentrations (starting at the highest concentration of 10 μM; 5-fold serial dilutions). After the cells were treated with the compounds of the present disclosure for a period of time (the treatment times listed in Table 7), the cell viability detection reagent was added to the culture medium for cell viability assessment according to the instructions provided with the CCK-8 kit. […] The growth inhibition of the compounds of the present disclosure on cells was plotted by Prism Graphpad software, and the IC50 values of the compounds of the present disclosure were calculated therefrom.

| Compound | pIC50 [1] | pIC50 [2] | pIC50 [3] | pIC50 [4] | pIC50 [5] | pIC50 [6] | pIC50 [7] | pIC50 [8] | pIC50 [9] | pIC50 [10] | pIC50 [11] | pIC50 [12] |
| --- | --- | --- | --- | --- | --- | --- | --- | --- | --- | --- | --- | --- |
| Cc1nc(Nc2ncc(C(=O)Nc3c(C)cccc3Cl)s2)cc(N2CCC(CN3C4CC3CN(c3cc5c(cc3F)C(=O)N(C3CCC(=O)NC3=O)C5=O)C4)CC2)n1 (stereo not drawn) [GT-03538, N-(2-chloro-6-methylphenyl)-2-((6-(4-((3-(2-(2,6-dioxopiperidin-3-yl)-6-fluoro-1,3-dioxoisoindolin-5-yl)-3,6-diazabicyclo[3.1.1]heptan-6-yl)methyl)piperidin-1-yl)-2-methylpyrimidin-4-yl)amino)thiazole-5-carboxamide] | ≥ 7.30 | 6.30 to 7.00 | ≥ 7.30 | 6.30 to 7.00 | – | – | – | – | – | – | – | – |
| Cc1nc(Nc2ncc(C(=O)Nc3c(C)cccc3Cl)s2)cc(N2CCN(CCO)CC2)n1 [Dasatinib, reference compound] | ≥ 7.30 | ≥ 7.30 | ≥ 7.30 | 6.30 to 7.00 | – | – | – | – | – | – | – | – |
| Cc1nc(Nc2ncc(C(=O)Nc3c(C)cccc3Cl)s2)cc(N2CCC(CN3C4CC3CN(c3ccc5c(c3)C(=O)N(C3CCC(=O)NC3=O)C5=O)C4)CC2)n1 (stereo not drawn) [GT-03631, N-(2-chloro-6-methylphenyl)-2-((6-(4-((3-(2-(2,6-dioxopiperidin-3-yl)-1,3-dioxoisoindolin-5-yl)-3,6-diazabicyclo[3.1.1]heptan-6-yl)methyl)piperidin-1-yl)-2-methylpyrimidin-4-yl)amino)thiazole-5-carboxamide] | ≥ 7.30 | 6.30 to 7.00 | – | 6.30 to 7.00 | – | – | – | – | – | – | – | – |
| Cc1nc(Nc2ncc(C(=O)Nc3c(C)cccc3Cl)s2)cc(N2CCC(CN3C4CCC3CN(c3cc5c(cc3F)C(=O)N(C3CCC(=O)NC3=O)C5=O)C4)CC2)n1 (stereo not drawn) [GT-03537, N-(2-chloro-6-methylphenyl)-2-((6-(4-((3-(2-(2,6-dioxopiperidin-3-yl)-6-fluoro-1,3-dioxoisoindolin-5-yl)-3,8-diazabicyclo[3.2.1]octan-8-yl)methyl)piperidin-1-yl)-2-methylpyrimidin-4-yl)amino)thiazole-5-carboxamide] | ≥ 7.30 | 7.00 to 7.30 | ≥ 7.30 | 6.30 to 7.00 | – | – | – | – | – | – | – | – |
| N#Cc1ccc(OC2CCC(NC(=O)c3ccc(N4C5CCC4CN(CC4CCN(c6cc7c(cc6F)C(=O)N(C6CCC(=O)NC6=O)C7=O)CC4)C5)nn3)CC2)cc1Cl (stereo not drawn) [GT-03449, N-((1r,4r)-4-(3-chloro-4-cyanophenoxy)cyclohexyl)-6-(3-((1-(2-(2,6-dioxopiperidin-3-yl)-6-fluoro-1,3-dioxoisoindolin-5-yl)piperidin-4-yl)methyl)-3,8-diazabicyclo[3.2.1]octan-8-yl)pyridazine-3-carboxamide] | – | – | – | – | 7.00 to 7.30 | 6.30 to 7.00 | 7.00 to 7.30 | 6.00 to 6.30 | 7.00 to 7.30 | 6.30 to 7.00 | – | – |
| N#Cc1ccc(OC2CCC(NC(=O)c3ccc(N4CCC(CN5CC6CC(C5)N6c5cc6c(cc5F)C(=O)N(C5CCC(=O)NC5=O)C6=O)CC4)nn3)CC2)cc1Cl (stereo not drawn) [GT-03486, N-((1r,4r)-4-(3-chloro-4-cyanophenoxy)cyclohexyl)-6-(4-((6-(2-(2,6-dioxopiperidin-3-yl)-6-fluoro-1,3-dioxoisoindolin-5-yl)-3,6-diazabicyclo[3.1.1]heptan-3-yl)methyl)piperidin-1-yl)pyridazine-3-carboxamide] | – | – | – | – | 6.30 to 7.00 | 6.30 to 7.00 | – | – | 7.00 to 7.30 | 6.30 to 7.00 | 6.30 to 7.00 | 6.30 to 7.00 |
| Cc1nc(Nc2ncc(C(=O)Nc3c(C)cccc3Cl)s2)cc(N2CCC(CN3C4CCC3CN(c3ccc5c(c3)C(=O)N(C3CCC(=O)NC3=O)C5=O)C4)CC2)n1 (stereo not drawn) [GT-03632, N-(2-chloro-6-methylphenyl)-2-((6-(4-((3-(2-(2,6-dioxopiperidin-3-yl)-1,3-dioxoisoindolin-5-yl)-3,8-diazabicyclo[3.2.1]octan-8-yl)methyl)piperidin-1-yl)-2-methylpyrimidin-4-yl)amino)thiazole-5-carboxamide] | ≥ 7.30 | ≥ 7.30 | – | 7.00 to 7.30 | – | – | – | – | – | – | – | – |
